# Data from US20120122924A1, “NAMPT INHIBITORS” (ABBOTT LABORATORIES, priority 2010, published 2012).
# Target: recombinant, human, C-terminally-His tagged NAMPT (Homo sapiens, UniProt P43490)
# Test: Time-Resolved Fluorescence Resonance Energy Transfer (TR-FRET) binding assay of NAMPT
# Settings: 6.8 nM NAMPT, 200 nM probe (Oregon Green 488-conjugated APO866), 1 nM Tb-anti-His antibody, 2-3 hours
# Procedure, shortened: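 Competition binding with 6.8 nM His-tagged NAMPT, 1 nM Tb-anti-His antibody and 200 nM Oregon Green 488-APO866 probe in HEPES pH 7.5 buffer with MgCl2 and DTT, 2–3 h. Excitation 337 nm; 520/492 nm emission ratio used for IC50.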
# Chain of recombinant, human, C-terminally-His tagged NAMPT (P43490 whole entry): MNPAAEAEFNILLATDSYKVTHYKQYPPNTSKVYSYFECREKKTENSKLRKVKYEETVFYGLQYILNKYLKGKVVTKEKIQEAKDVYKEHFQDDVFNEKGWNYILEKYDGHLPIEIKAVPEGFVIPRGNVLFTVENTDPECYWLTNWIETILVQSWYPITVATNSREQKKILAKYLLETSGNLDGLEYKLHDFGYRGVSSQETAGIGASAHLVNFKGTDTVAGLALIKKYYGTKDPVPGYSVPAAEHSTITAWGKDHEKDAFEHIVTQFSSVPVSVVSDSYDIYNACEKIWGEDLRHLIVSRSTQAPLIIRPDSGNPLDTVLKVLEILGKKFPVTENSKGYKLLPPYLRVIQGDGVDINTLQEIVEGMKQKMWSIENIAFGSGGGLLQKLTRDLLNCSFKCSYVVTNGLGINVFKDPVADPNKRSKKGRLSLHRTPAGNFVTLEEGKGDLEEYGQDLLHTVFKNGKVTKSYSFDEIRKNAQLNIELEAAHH
row,IC50,SMILES
1,298 nM,"CC(C)CCn1cc(-c2ccc(NC(=O)N3CCc4ccccc4C3)cc2)cn1 [Example 37, N-{4-[1-(3-methylbutyl)-1H-pyrazol-4-yl]phenyl}-3,4-dihydroisoquinoline-2(1H)-carboxamide]"
2,1260 nM,"CC(C)CCc1nc(-c2ccc(NC(=O)N3CCc4ccccc4C3)cc2)no1 [Example 58, N-{4-[5-(3-methylbutyl)-1,2,4-oxadiazol-3-yl]phenyl}-3,4-dihydroisoquinoline-2(1H)-carboxamide]"

# Second part, the compound before the results:
row,SMILES,IC50
1,"O=C(Cc1ccccc1)NCCc1ccc(NC(=O)N2CCc3ccccc3C2)cc1 [Example 61, N-(4-{2-[(phenylacetyl)amino]ethyl}phenyl)-3,4-dihydroisoquinoline-2(1H)-carboxamide]",1250 nM
2,"CC(C)C(=O)N1CC=C(c2ccc(NC(=O)N3CCc4ccccc4C3)cc2)CC1 [Example 46, N-[4-(1-isobutyryl-1,2,3,6-tetrahydropyridin-4-yl)phenyl]-3,4-dihydroisoquinoline-2(1H)-carboxamide]",15.3 nM
3,"O=C(Nc1ccc(NC(=O)N2CCc3ccccc3C2)cc1)C1Cc2ccccc2O1 (racemic) [Example 68, N-{4-[((2R)-2,3-dihydro-1-benzofuran-2-ylcarbonyl)amino]phenyl}-3,4-dihydroisoquinoline-2(1H)-carboxamide and N-{4-[((2S)-2,3-dihydro-1-benzofuran-2-ylcarbonyl)amino]phenyl}-3,4-dihydroisoquinoline-2(1H)-carboxamide]",4.45 nM
4,"O=C(NCCCc1ccccc1)c1ccc(NC(=O)N2CCc3ccccc3C2)cc1 [Example 7, N-{4-[(3-phenylpropyl)carbamoyl]phenyl}-3,4-dihydroisoquinoline-2(1H)-carboxamide]",20.7 nM
